Laboratory results published in patent publication US20030022814A1, “Method for treating or preventing depression” (priority 2002, published 2003).

What was measured:
[1] = tested on: PDE IV inhibitor-induced emesis in the ferret; experiment: Ferret emesis: PDE4 inhibitors and neurokinin-1 receptor antagonists; format: in vivo; conditions: NK-1 antagonist given before oral emetic dose of PDE IV inhibitor
Experimental: Ferret Emesis: PDE4 Inhibitors and Neurokinin-1 Receptor Antagonists
Intracerebroventricular (i.c.v.) administration was performed following a surgical implantation of an i.c.v. guide cannula. Under isoflurane anaesthesia, a 22 gauge stainless steel guide cannula (total length=20 mm) was lowered 9 mm below the surface of the skull, at the midline, 2 mm anterior to the cross-suture of the posterior edge of the skull. The tip of the guide cannula is then positioned 3-5 mm directly above the area postrema. The guide cannula was fixed to the skull using 2 screws and dental acrylic cement. The animals received antibiotic (Clamoxyl LA, SmithKline Beecham, Surrey, U.K.; 15 mg kg^−1 s.c.) and analgesic injections (Zenecarp, C-Vet Limited, Edmounds, U.K.; 5 mg kg^−1 s.c.) and were housed in individual cages. They were allowed at least 1 week to recover. Intracerebroventricular administration of drugs was performed by inserting an injection unit of 24-25 mm (level of the area postrema) or 27 mm (for brain tissue injection) length into the guide cannula and infusing 2 μl of the drug solution (or vehicle) over 1 minute. […]
Anti-emetic agents ondansetron (3 mg kg^−1 i.p.), and neurokinin-1 receptor antagonists (3 mg kg^−1 i.p. or s.c.) were administered 30 minutes prior to an oral challenge with an emetic dose of selected PDE IV inhibitors. […] The emetic response was monitored as described earlier. […]

emesis in ferrets = experiment: Ferret emesis: PDE4 inhibitors and alpha-2 adrenoreceptor agonists/antagonists; conditions: for emesis following administration of the drug itself: route not stated

COc1ccccc1CN[C@H]1CCCN[C@H]1c1ccccc1 [CP-99,994]
effect on PDE IV inhibitor-induced emesis [1]: abolished

Clc1cccc(Cl)c1N=C1NCCN1 [clonidine]
emesis induced by CT-2450 (emesis in ferrets; 250 μg kg−1 pre-treatment, CT-2450 30 mg kg−1 p.o., all animals treated): abolished
animals with complete protection against R-rolipram-induced emesis (emesis in ferrets; 250 μg kg−1 pre-treatment, R-rolipram 3 mg kg−1 p.o.): two out of three
animals with complete protection against RS14203-induced emesis (emesis in ferrets; 250 μg kg−1 pre-treatment, RS14203 1 mg kg−1 p.o.): five out of six
latency of onset of RS14203-induced emesis (emesis in ferrets; RS14203 1 mg kg−1 p.o. challenge): increased
number of retches and vomits induced by RS14203 (emesis in ferrets; RS14203 1 mg kg−1 p.o. challenge, clonidine 62.5-250 μg kg−1): dose-dependently decreased

CN1CC[C@]2(CCN3CCc4c(oc5ccccc45)[C@@H]3C2)N(C)C1=O.Cl [MK-912]
emesis following administration of the drug itself (emesis in ferrets): Emesis was also recorded

CS(=O)(=O)NCCN1C(=O)NC[C@]12CCN1CCc3c(oc4ccccc34)[C@@H]1C2 [MK-467]
emesis following administration of the drug itself (emesis in ferrets): Emesis was also recorded

COC(=O)[C@@H]1[C@H]2C[C@H]3c4[nH]c5ccccc5c4CCN3C[C@@H]2CC[C@@H]1O [yohimbine]
emesis (retching and vomiting) induced by the drug itself (emesis in ferrets; intraperitoneal injection): induced retching and vomiting in all ferrets treated
